For 10 compounds, IC50 results are on record in patent US20240368135A1 (VERTEX PHARMACEUTICALS INCORPORATED, priority 2021, published 2024).

Some results are limits rather than exact numbers.

Chain of human NaV 1.8 (Q9Y5Y9 126-399 limits assumed): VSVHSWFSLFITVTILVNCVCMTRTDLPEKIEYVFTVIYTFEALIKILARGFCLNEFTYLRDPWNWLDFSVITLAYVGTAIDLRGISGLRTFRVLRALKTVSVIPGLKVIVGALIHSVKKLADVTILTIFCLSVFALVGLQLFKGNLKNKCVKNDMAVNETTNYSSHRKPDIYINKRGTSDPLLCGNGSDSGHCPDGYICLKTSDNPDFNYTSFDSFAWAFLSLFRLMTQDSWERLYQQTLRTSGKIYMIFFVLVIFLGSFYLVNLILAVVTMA
Chain of human NaV 1.8 (Q9Y5Y9 660-890 limits assumed): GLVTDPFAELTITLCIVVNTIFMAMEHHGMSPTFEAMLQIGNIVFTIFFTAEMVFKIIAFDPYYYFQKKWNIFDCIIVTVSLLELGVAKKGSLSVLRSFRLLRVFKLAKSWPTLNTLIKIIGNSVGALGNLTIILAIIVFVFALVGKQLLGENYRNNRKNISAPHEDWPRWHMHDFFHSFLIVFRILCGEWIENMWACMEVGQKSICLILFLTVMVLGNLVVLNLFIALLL
Chain of human NaV 1.8 (Q9Y5Y9 1148-1722 limits assumed): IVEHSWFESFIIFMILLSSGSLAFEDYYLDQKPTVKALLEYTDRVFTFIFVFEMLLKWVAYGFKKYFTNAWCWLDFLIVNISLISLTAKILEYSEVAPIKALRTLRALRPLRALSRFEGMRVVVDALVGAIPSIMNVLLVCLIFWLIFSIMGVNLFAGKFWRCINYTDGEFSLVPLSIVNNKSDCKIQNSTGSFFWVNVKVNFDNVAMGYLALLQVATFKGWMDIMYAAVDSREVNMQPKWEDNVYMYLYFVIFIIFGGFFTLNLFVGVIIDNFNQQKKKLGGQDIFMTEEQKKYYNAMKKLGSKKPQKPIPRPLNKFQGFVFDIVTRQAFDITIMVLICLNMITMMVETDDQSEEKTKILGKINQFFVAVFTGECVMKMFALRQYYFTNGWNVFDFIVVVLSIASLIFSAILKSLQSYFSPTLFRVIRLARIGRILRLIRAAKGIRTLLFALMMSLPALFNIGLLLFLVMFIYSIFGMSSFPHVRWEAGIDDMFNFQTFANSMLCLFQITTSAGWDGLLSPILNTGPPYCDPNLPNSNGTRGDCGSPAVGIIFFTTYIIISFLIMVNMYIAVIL

One experiment addresses human NaV 1.8 (Homo sapiens, UniProt Q9Y5Y9). The experiment in a line: E-VIPR assay detecting and measuring NaV inhibition properties. Format: cell-based. To be noted: HEK cells expressing truncated human NaV 1.8; in the presence of human serum (compound numbers followed by *); read-out: IC50 in the E-VIPR Assay, performed in the presence of human serum. The gist of the method: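 Membrane potential was followed by coumarin/oxonol FRET during electrical field stimulation of matrigel-seeded HEK cells carrying truncated human NaV1.8 plus KIR2.1. Dosing used 11 points, 3-fold steps, top 300 nM final, 0.625% DMSO, with or without 25% human serum.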
As for `COc1c(C2C(C(=O)Nc3ccnc(C(O)CO)c3)OC(C)(C)C2C)ccc(F)c1F` (single isomer, unassigned) [Compound 722, rel-3-(3,4-difluoro-2-methoxyphenyl)-N-(2-(1,2-dihydroxyethyl)pyridin-4-yl)-4,5,5-trimethyltetrahydrofuran-2-carboxamide], the IC50 – broadly, the midpoint of a concentration-inhibition curve – is not below 1000 nM.

Staying with this experiment, now noted: HEK cells expressing truncated human NaV 1.8; no human serum; read-out: IC50 in the E-VIPR Assay.
Regarding `COc1c([C@H]2[C@H](C(=O)Nc3cnc4c(c3)OCC4O)O[C@@](C)(C(F)(F)F)[C@H]2C)ccc(F)c1F` (single isomer, unassigned) [Compound 409, rel-(2R*,3S*,4S*,5R*)-3-(3,4-difluoro-2-methoxyphenyl)-N-(3-hydroxy-2,3-dihydrofuro[3,2-b]pyridin-6-yl)-4,5-dimethyl-5-(trifluoromethyl)-tetrahydrofuran-2-carboxamide], the IC50 is 100 to 1000 nM.
For the compound `C[C@H]1[C@@H](c2ccc(F)c(F)c2OCC(C)(F)F)[C@H](C(=O)Nc2ccnc(CO)c2)O[C@@]1(C)C(F)(F)F` [Compound 643, (2R,3S,4S,5R)-3-(2-(2,2-difluoropropoxy)-3,4-difluorophenyl)-N-(2-(hydroxymethyl)pyridin-4-yl)-4,5-dimethyl-5-(trifluoromethyl)tetrahydrofuran-2-carboxamide], the IC50 was less than 10 nM.
On to `COc1c([C@H]2[C@H](C(=O)NCC3CC3)O[C@@](C)(C(F)(F)F)[C@H]2C)ccc(F)c1F` [Compound 270, (2R,3S,4S,5R)-N-(cyclopropylmethyl)-3-(3,4-difluoro-2-methoxyphenyl)-4,5-dimethyl-5-(trifluoromethyl)tetrahydrofuran-2-carboxamide], for which the IC50 was 100 to 1000 nM.
Consider `C[C@H]1[C@@H](c2ccc(F)c(F)c2OCCO)[C@H](C(=O)Nc2cnnn2C)O[C@@]1(C)C(F)(F)F` [Compound 573, (2R,3S,4S,5R)-3-(3,4-difluoro-2-(2-hydroxyethoxy)phenyl)-4,5-dimethyl-N-(1-methyl-1H-1,2,3-triazol-5-yl)-5-(trifluoromethyl)tetrahydrofuran-2-carboxamide], for which the IC50 lay within 100 to 1000 nM.
With `COc1c([C@H]2[C@H](C(=O)Nc3ccc(NS(C)(=O)=O)nc3)O[C@@](C)(C(F)(F)F)[C@H]2C)ccc(F)c1F` [Compound 526, (2R,3S,4S,5R)-3-(3,4-difluoro-2-methoxy-phenyl)-N-[6-(methanesulfonamido)-3-pyridyl]-4,5-dimethyl-5-(trifluoromethyl)tetrahydrofuran-2-carboxamide], the IC50 is 10 to 100 nM.
Same read-out and setting: then `C[C@H](CO)COc1c([C@H]2[C@H](C(=O)Nc3ccc(C(N)=O)nc3)O[C@@](C)(C(F)(F)F)[C@H]2C)ccc(F)c1F` [Compound 614, 5-((2R,3S,4S,5R)-3-(3,4-difluoro-2-((R)-3-hydroxy-2-methylpropoxy)phenyl)-4,5-dimethyl-5-(trifluoromethyl)tetrahydrofuran-2-carboxamido)picolinamide], with 10 to 100 nM; and `CNC(=O)c1ccc(NC(=O)[C@@H]2O[C@@](C)(C(F)(F)F)[C@@H](C)[C@H]2c2ccc(F)c(C(F)F)c2OC)cn1` (stereo in doubt) [Compound 170, rel-5-((2R,3S,4S,5R)-3-(3-(difluoromethyl)-4-fluoro-2-methoxyphenyl)-4,5-dimethyl-5-(trifluoromethyl)tetrahydrofuran-2-carboxamido)-N-methylpicolinamide], with less than 10 nM.
Take `COc1c([C@H]2[C@H](C(=O)Nc3ccc(C(=O)NC#N)nc3)O[C@@](C)(C(F)(F)F)[C@H]2C)ccc(F)c1F` [Compound 373, N-cyano-5-[[(2R,3S,4S,5R)-3-(3,4-difluoro-2-methoxy-phenyl)-4,5-dimethyl-5-(trifluoromethyl)tetrahydrofuran-2-carbonyl]amino]pyridine-2-carboxamide]: the IC50 fell in the range of 100 to 1000 nM.
In the case of `COc1c(C2C(C(=O)Nc3ccnc(S(C)(=N)=O)c3)OC(C)(C(F)(F)F)C2C)ccc(F)c1F` (single isomer, unassigned) [Compound 55, 3-(3,4-difluoro-2-methoxy-phenyl)-4,5-dimethyl-N-[2-(methylsulfonimidoyl)-4-pyridyl]-5-(trifluoromethyl)tetrahydrofuran-2-carboxamide], the IC50 was less than 10 nM.
